Test results published in PubChem BioAssay (NCI).
“And” between values parts separate entries of the source, which are not always exact repeats. Equal values may be shown once.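 How tested: cells in 96-well plates exposed to compound for 48 hours at five concentrations. Abbreviation: GI50, concentration required for 50% inhibition of growth. TGI is the concentration that stops growth completely.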

What was measured:
Assay in all cases: NCI anticancer screen, dose series, 48 h
[1] = tested on: DU-145 prostate
[2] = tested on: COLO 205 colon
[3] = tested on: UO-31 renal
[4] = tested on: U251 CNS
[5] = tested on: OVCAR-3 ovarian
[6] = tested on: SN12C renal
[7] = tested on: A498 renal
[8] = tested on: SF-268 CNS

Structure (SMILES) | GI50 [1] | TGI [1] | GI50 [2] | TGI [2] | GI50 [3] | TGI [3] | GI50 [4] | TGI [4] | GI50 [5] | TGI [5] | GI50 [6] | TGI [6] [µM] | GI50 [7] | TGI [7] | GI50 [8] | TGI [8]
CC(C)c1c(C(=O)Nc2ccccc2)c(-c2ccccc2)c(-c2ccc(F)cc2)n1CC[C@@H](O)C[C@@H](O)CC(=O)O | 52.5 µM | > 100 µM | 24.5 µM | > 78.9 µM | 30.2 µM | > 100 µM | 4.48 µM | > 100 µM | 33.1 µM | > 100 µM | 7.56 µM | > 100 | 0.516 µM | 4.52 µM | 6.64 µM | > 100 µM
O=C1Nc2ccc(I)cc2/C1=C/c1cc(Br)c(O)c(Br)c1 | > 23.8 µM and 25 µM | > 100 µM | 24.3 µM and 18.3 µM | > 25 µM and 71.4 µM | > 16.4 µM and 18.1 µM | > 25 µM and 58.9 µM | > 24.1 µM and 15.1 µM | > 25 µM and 36.3 µM | > 12.5 µM and 16.7 µM | > 20.6 µM and 36.9 µM | > 25 µM and 25.9 µM | > 80.8 | > 16.3 µM and 20.3 µM | > 25 µM and 41.9 µM | > 21.9 µM and 18.2 µM | > 25 µM and 68.8 µM
COc1cccc(-c2cc(-c3ccc(Nc4nc(Nc5ccc(Cl)cc5)nc(Nc5ccc(Cl)cc5)n4)cc3)nc(N)c2C#N)c1 | 4.58 µM | 26.1 µM | 1.63 µM | 3.39 µM | 1.52 µM | 4.31 µM | 3.76 µM | > 37.5 µM | 1.73 µM | 3.53 µM | 4.01 µM | > 100 | 4.7 µM | 29.4 µM | 2.94 µM | 10.2 µM
N=C(N)c1ccc(-c2ccc(-c3cccs3)s2)cc1F | 1.57 µM and 1.44 µM | 3.04 µM and 2.84 µM | 0.202 µM | 0.39 µM | 1.55 µM | 3.34 µM | 1.33 µM | 2.8 µM | 1.47 µM | 3.09 µM | 1.63 µM | 3.69 | 0.156 µM | 0.621 µM | 1.65 µM | 3.37 µM
FC(F)(F)c1ccc(-c2cnc(-c3nn[nH]n3)nc2NC2CCCCCC2)cc1 | > 10 µM | > 10 µM | > 10 µM | > 10 µM | > 10 µM | > 10 µM | > 10 µM | > 10 µM | > 10 µM | > 10 µM | > 10 µM | > 10 | > 10 µM | > 10 µM | > 10 µM | > 10 µM
Cc1ccc(CNc2ccc(Cl)cc2NCc2ccc(C)c(O)c2)cc1O | 7.71 µM | 14.4 µM | 8.01 µM | 15.9 µM | 5.42 µM | 11.7 µM | 7.15 µM | 14.2 µM | 7.15 µM | 13.9 µM | 6.95 µM | 14 | 8.55 µM | 16.1 µM | 7 µM | 14.2 µM
C/C=C/C(C/C=C(\C)CO[Si](C)(C)C(C)(C)C)O[Si](C)(C)C(C)(C)C (stereo not given) | – | > 100 µM | – | > 100 µM | – | > 100 µM | – | – | – | > 100 µM | – | > 100 | – | > 100 µM | – | > 100 µM
Cc1cc(C)c(CNC(=O)c2cc(Cl)c3c(c2C)O[C@@](C)(C2CCC(N(C)C)CC2)O3)c(=O)[nH]1 (stereo not given in full) | > 100 µM | > 100 µM | > 100 µM | > 100 µM | 45.6 µM | > 100 µM | 68 µM | > 100 µM | > 100 µM | > 100 µM | > 100 µM | > 100 | 27.8 µM | > 100 µM | 60.7 µM | > 100 µM
Nc1nc(N)c2nc(CNc3ccc(C(=O)NC(CCC(=O)O)C(=O)O)cc3)cnc2n1 (stereo not given) | < 0.01 µM | > 100 µM | – | > 100 µM | 0.0262 µM and < 0.01 µM | > 100 µM | 0.0468 µM and < 0.0107 µM | > 100 µM | 0.0695 µM and 0.0295 µM | > 100 µM | < 0.01 µM | > 100 | 0.062 µM and 0.0488 µM | > 100 µM | 0.02 µM and < 0.01 µM | > 100 µM
CC(C)OC(=O)OCOP(=O)(OCOC(=O)OC(C)C)C1CCCN(O)C1=O (stereo not given) | 3.83 µM | > 100 µM | 3.71 µM | > 100 µM | 0.197 µM | 68.1 µM | 1.76 µM | > 100 µM | 1.47 µM | > 100 µM | 0.281 µM | > 100 | 0.0732 µM | 0.867 µM | 3.07 µM | > 100 µM
COc1ccc(-c2cc(-c3ccc(Cl)cc3)c(C#N)c(=O)n2CCCCCC(=O)Nc2ccccc2N)cc1 | 10.6 µM | > 100 µM | 3.15 µM | 33.2 µM | 3.96 µM | > 100 µM | 6.19 µM | > 100 µM | 5 µM | 25.3 µM | 7.66 µM | > 100 | 1.37 µM | 19.2 µM | 14.9 µM | > 100 µM
CCN(CC)CCN1C(=O)c2cccc3cc(N)cc(c23)C1=O | – | > 100 µM | – | 16.8 µM | – | 66.8 µM | – | > 100 µM | – | 44.3 µM | – | 27.1 | – | 57.5 µM | – | > 100 µM
CN(C)CCCn1c2c(c3ccc(N4CCNCC4)cc3c1=O)C(=O)c1ccccc1-2 | 0.329 µM | 1.65 µM | 0.624 µM | 2.28 µM | 0.765 µM | 2.56 µM | 0.639 µM | 2.31 µM | 1.05 µM | 3.07 µM | 0.329 µM | 1.79 | – | – | 0.95 µM | 2.72 µM
CCCN1CCCC(c2ccc(Nc3nc(Nc4cc(F)ccc4C(N)=O)c4cc[nH]c4n3)c(OC)c2)C1 (stereo not given) | 0.802 µM | 4.74 µM | 0.015 µM | 1.23 µM | 1.27 µM | 5.88 µM | 2.57 µM | 5.58 µM | 2.92 µM | 6 µM | 3.19 µM | 6.71 | 0.779 µM | 4.34 µM | 2.84 µM | 6.07 µM
CN(C)c1ccc(-c2cc(-c3cccc(NS(C)(=O)=O)c3)nc(N)c2C#N)cc1 | – | – | 0.025 µM | 0.0729 µM | 0.0562 µM | 45 µM | 0.0418 µM | 20.4 µM | 0.0226 µM | 0.0568 µM | 0.0537 µM | 20.7 | 0.054 µM | 38.8 µM | 0.0561 µM | 28.9 µM
O=C(/C=C/c1c[nH]c2ccccc12)c1ccccc1O | – | 23.9 µM | – | – | – | 17.6 µM | – | 40.4 µM | – | 20.3 µM | – | 28.8 | – | 28.5 µM | – | 40 µM
Fc1cnccc1-c1nc2ccc3[nH]ncc3c2c2c1CCCC2 | 1.67 µM | 43.3 µM | – | – | 1.91 µM | 8.04 µM | 1.96 µM | > 100 µM | 2.46 µM | 10.9 µM | 2.14 µM | > 100 | 0.7 µM | 2.96 µM | 1.99 µM | 9.82 µM
COc1ncc(-c2ccc3nc(N)n(-c4ccccc4C(F)(F)F)c(=O)c3c2)cc1S(=O)(=O)Nc1ccc(F)cc1F | 0.897 µM | > 100 µM | 0.511 µM | 1.82 µM | – | – | 0.953 µM | 15.3 µM | 0.369 µM | 3.75 µM | 4.52 µM | > 100 | 0.329 µM | 1.96 µM | 2.43 µM | > 100 µM
Nc1ncnc2c1ncn2C1SC(CO)C(O)C1O (stereo not given) | 6.93 µM | 26.7 µM | 33.3 µM | > 100 µM | 18.8 µM | 41.9 µM | 27 µM | > 100 µM | 24.5 µM | 58.3 µM | 19.3 µM | 62.3 | – | – | 27.1 µM | 96.6 µM
COc1ccc2c(c1)c(-c1nc(-c3cn(C)c4ncccc34)cs1)cn2CCCCN1CCCCC1 | 1.74 µM | 3.12 µM | – | – | 1.43 µM | 2.77 µM | – | – | 1.7 µM | 3.15 µM | – | – | 1.66 µM | 3.11 µM | – | –
Cc1nn(-c2ccccc2)c2c1[C@@H](C)[C@H]1CC3(CC4(C)C[C@@H]3C1(C)c1c(C)nn(-c3ccccc3)c1N4C)N2C (stereo not given in full) | > 100 µM | > 100 µM | – | – | – | – | – | – | – | – | > 100 µM | > 100 | > 100 µM | > 100 µM | > 100 µM | > 100 µM
O=c1c2cc(F)ccc2sc2c(NCCCNCCO)nc3ccc(F)cc3c12 | 1.76 µM | 3.19 µM | – | – | 1.11 µM | 2.37 µM | – | – | 1.78 µM | 3.38 µM | 1.58 µM | 3.05 | 2.24 µM | 7.21 µM | 1.57 µM | 3.22 µM
CC(=O)[O-].O=C([CH-]C(=O)c1ccccc1)c1ccccc1.O=C([CH-]C(=O)c1ccccc1)c1ccccc1.[Dy+3] | – | – | 15.3 µM | 34.1 µM | 8.35 µM | 32.5 µM | 11.9 µM | > 100 µM | 13.9 µM | 51.8 µM | 11.9 µM | 59.5 | 15.5 µM | 61.5 µM | 10.4 µM | 56.4 µM
O=C(N=Nc1c(O)[nH]c2c(Cl)cc(Cl)cc12)C(=O)Nc1cccc(C(F)(F)F)c1 | – | – | – | > 100 µM | – | > 100 µM | – | > 100 µM | – | > 100 µM | – | > 100 | – | > 100 µM | – | –
